Holding throughout (assay type): in vivo
Assay [1] relates to CD36^+/+ and CD36^−/− mice. Briefly: Myocardial metabolic rate of glucose by μPET with [18F]-FDG. The note with it: 6 hours reperfusion; in words. How it is done: (§1) Experimental model of IHD: Transient left coronary artery ligation in vivo. Mice were subjected to a transient LCAL surgery as described before, with minor modifications [Tarnayski et al., 2004]. Mice were injected i.p. with buprenorphine (0.05 mg/kg) and placed in an induction chamber with inhalation anesthesia comprised of 3% isoflurane mixed with 100% oxygen. Mice were intubated with a blunt ended 20-gauge catheter into the trachea via the mouth and mechanically ventilated at a tidal volume of 7 ml/kg at 130 respirations/min with a MiniVent™ mouse ventilator (model 845, Harvard Apparatus, Saint-Laurent, QC, Canada). Anesthesia was maintained with 1.5-2% isoflurane and the animals were kept warm using electrical heating pads during the surgical procedure. The chest was opened by a horizontal incision through the skin and muscle layers at the third intercostal space exposing the left side of the heart. […] Visual blanching distal to the coronary occlusion confirmed myocardial ischaemia. Lidocaine (6 mg/kg) was administered i.p. just following occlusion and prior to reperfusion. […]
Imaging Data Analysis. For [^11C]-acetate images, dynamic series of 25 frames each were sorted out whereas 27 frames were used for ^18FDG and ^18FTHA imaging, and were reconstructed and analyzed using multicompartmental analysis [Menard et al., 2009] or the Patlak method for FTHA [Patlak and Blasberg, 1985]. […]

Assay [2] relates to CD36^+/+ and CD36^−/− mice. Briefly: Myeloperoxidase assay of myocardial leukocyte accumulation. As to conditions: 48 hours reperfusion; CD36-dependent (CD36^+/+ mice); 10-week pretreatment; p<0.05. How it is done: as §1, with “reperfusion. After 30 minutes, the PE10 tubing was removed allowing reperfusion. The lungs were reinflated and the chest wound closed layer by layer before extubation.” for “reperfusion.”
Myeloperoxidase assay. […] The numbers of PMN per left ventricle were calculated from the standard curves.

A further assay concerns C57BL/6 mice. Briefly: Cardiac troponin I (cTnI) in plasma, ELISA. As to conditions: 48 hours post-ischemia; 2 weeks 289 nmol/kg; compared to vehicle. How it is done:
C57BU6 mice were bred in house. Male mice, aged 23 (±1) weeks, were used for experiments. They were fed standard chow (#5075, Charles Rivers, Saint-Constant, Québec, Canada) and water ad libitum, and housed singly during treatment periods (2 weeks). Daily pharmacological treatments with 300 μg/kg (289 nmol/kg) of EP 80317 or 289 nmol/kg of CP-3(IV), 289 nmol/kg of CP-AP-4 or vehicle (0.9% NaCl) were done by subcutaneous (s.c.) injections.
Experimental model of IHD: Transient left coronary artery ligation in vivo. Mice were subjected to a transient LCAL surgery as described before, with minor modifications [Tarnayski et al., 2004]. Mice were injected i.p. with buprenorphine (0.05 mg/kg) and placed in an induction chamber with inhalation anesthesia comprised of 3% isoflurane mixed with 100% oxygen. Mice were intubated with a blunt ended 20-gauge catheter into the trachea via the mouth and mechanically ventilated at a tidal volume of 7 ml/kg at 130 respirations/min with a MiniVent™ mouse ventilator (model 845, Harvard Apparatus, Saint-Laurent, QC, Canada). Anesthesia was maintained with 1.5-2% isoflurane and the animals were kept warm using electrical heating pads during the surgical procedure. The chest was opened by a horizontal incision through the skin and muscle layers at the third intercostal space exposing the left side of the heart. […] Visual blanching distal to the coronary occlusion confirmed myocardial ischaemia. Lidocaine (6 mg/kg) was administered i.p. just following occlusion and prior to reperfusion. After 30 minutes, the PE10 tubing was removed allowing reperfusion. The lungs were reinflated and the chest wound closed layer by layer before extubation. […] Hearts were immediately frozen at −80° C. unless otherwise stated.
Cardiac troponin I (cTnI) concentrations in plasma. cTnI plasma levels were assayed using the High Sensitivity Mouse Cardiac Troponin-I ELISA Kit (Life Diagnostics, Inc., West Chester, Pa., Cat. No. 2010-1-HSP), according to the manufacturer's instructions.
A general note: In an ELISA, binding on a coated surface is turned into a signal by an enzyme label.

The results in this text go back to patent US20100279941A1, “CD36 MODULATION AND USES THEREOF” (priority 2009, published 2010).

In the case of “HAIC-2MeDTrp-DLys-Trp-DPhe-Lys-NH2 [EP 80317]”, in assay [1], the “myocardial metabolic rate of glucose (MMRG)” value is reported as “not modulated”. In addition, the “reduction in myocardial leukocyte accumulation” value in assay [2] is reported as 53%. The “reduction of cardiac troponin I (cTnI) levels in plasma” value with C57BL/6 mice stood at 60%.
